US11696907B2, “Wound healing composition” (WINERGEN TECHNOLOGIES INC., LTD., priority 2016, dated 2023)

Tests used:
wounds and skin damage = assay: Treatment effect of palmitic acid and behenic acid alone versus combined
certain wounds = assay: Effect of unsaturated fatty acids on wounds; set-up: species or system patients; conditions: in vivo

inflammation to certain wounds, causing pain in some patients (certain wounds) | Structure (SMILES) | treatment effect of either acid alone (wounds and skin damage)
– | CCCCCCCCCCCCCCCC(=O)O [palmitic acid] | less significant
harmful inflammation | CCCCC/C=C\C/C=C\CCCCCCCC(=O)O [linoleic acid] | –
– | CCCCCCCCCCCCCCCCCCCCCC(=O)O [behenic acid] | less significant
harmful inflammation | CCCCC/C=C\C/C=C\C/C=C\C/C=C\CCCC(=O)O [arachidonic acid] | –
